Reference: patent US20220144823A1, “PYRAZOLOPYRIDINE DERIVATIVES AS INHIBITORS OF PASK” (Galapagos NV, priority 2019, published 2022)

Tested on: diabetic non human primates (NHPs) under a high-calorie diet (HCD)
Experiment: Diabetic monkey model;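 further: male obese diabetic cynomolgus monkeys fed a high-fat, high-fructose diet, randomized into 4 groups, dosed with test compound for 8 weeks, then a 4-week washout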
Protocol: The aim of this assay is to determine the effect of a test compound on lipid metabolism and glucose handling in diabetic non human primates (NHPs) under a high-calorie diet (HCD) consisting of high-fat and high-fructose.
Male obese diabetic cynomolgus monkeys were selected based on their body weights, glucose, insulin levels, and blood lipid parameters. The inclusion criteria were the following: age ≤22 years; fasted plasma glucose between 120 and 300 mg/dL; triglycerides >125 mg/dL, and insulin >75 mIU/mL.
The animals are maintained at 20-23° C. and 40-70% humidity on a 12 h light/dark cycle (7 AM-7 PM). Water is provided ad libitum and the animals are fed twice daily with the high-calorie diet (HCD) enriched with seasonal fruits or vegetables.
After the baseline period, animals were randomized into 4 groups according to body weight, as well as their blood glucose and lipid parameters.
The following parameters were measured once per week during the 8 weeks of treatment and also during the 4 weeks of washout: • body weight • food consumption • blood chemistry (fasted blood glucose, plasma triglycerides, plasma total cholesterol, low density lipoproteins (LDL), and high density lipoproteins (HDL))
Oral glucose tolerance was measured in fasted animals before treatment initiation (baseline), at the end of the treatment period (week 8), and after 4 weeks of washout (week 12).

## Cc1nn(C(C)C)c(C)c1-c1cnn2ccc(-c3cc(C(=O)O)co3)cc12 [Cpd 18, 5-[3-(1-isopropyl-3,5-dimethyl-pyrazol-4-yl)pyrazolo[1,5-a]pyridin-5-yl]furan-3-carboxylic acid]
Group 2, week 1, treatment
  HDL change (% change from baseline): 14.1%
  LDL change (% change from baseline): 52.8%
  Total cholesterol change (% change from baseline): 48.2 % change from baseline
  Triglyceride change (% change from baseline): −33.3 % change from baseline
Group 2, week 2, treatment
  HDL change (% change from baseline): 8.4%
  LDL change (% change from baseline): 38.3%
  Total cholesterol change (% change from baseline): 33.8 % change from baseline
  Triglyceride change (% change from baseline): −31.2 % change from baseline
Group 2, week 3, treatment
  HDL change (% change from baseline): 6.2%
  LDL change (% change from baseline): 16.6%
  Total cholesterol change (% change from baseline): 18.6 % change from baseline
  Triglyceride change (% change from baseline): −36.7 % change from baseline
Group 2, week 4, treatment
  HDL change (% change from baseline): −4.3%
  LDL change (% change from baseline): 31.0%
  Total cholesterol change (% change from baseline): 28.0 % change from baseline
  Triglyceride change (% change from baseline): −44.2 % change from baseline
Group 2, week 5, treatment
  HDL change (% change from baseline): 4.2%
  LDL change (% change from baseline): 5.1%
  Total cholesterol change (% change from baseline): 3.2 % change from baseline
  Triglyceride change (% change from baseline): −62.6 % change from baseline
Group 2, week 6, treatment
  HDL change (% change from baseline): 11.7%
  LDL change (% change from baseline): −10.5%
  Total cholesterol change (% change from baseline): −6.7 % change from baseline
  Triglyceride change (% change from baseline): −59.6 % change from baseline
Group 2, week 7, treatment
  HDL change (% change from baseline): 13.0%
  LDL change (% change from baseline): −17.2%
  Total cholesterol change (% change from baseline): −12.0 % change from baseline
  Triglyceride change (% change from baseline): −55.9 % change from baseline
Group 2, week 8, treatment
  HDL change (% change from baseline): 12.4%
  LDL change (% change from baseline): −10.5%
  Total cholesterol change (% change from baseline): −5.1 % change from baseline
  Triglyceride change (% change from baseline): −39.3 % change from baseline
Group 2, week 9, washout
  HDL change (% change from baseline): 13.5%
  LDL change (% change from baseline): −1.6%
  Total cholesterol change (% change from baseline): 5.8 % change from baseline
  Triglyceride change (% change from baseline): −33.4 % change from baseline
Group 2, week 10, washout
  HDL change (% change from baseline): 22.7%
  LDL change (% change from baseline): 38.6%
  Total cholesterol change (% change from baseline): 42.4 % change from baseline
  Triglyceride change (% change from baseline): 9.8 % change from baseline
Group 2, week 11, washout
  HDL change (% change from baseline): 21.2%
  LDL change (% change from baseline): 81.5%
  Total cholesterol change (% change from baseline): 83.8 % change from baseline
  Triglyceride change (% change from baseline): 49.7 % change from baseline
Group 2, week 12, washout
  HDL change (% change from baseline): 24.9%
  LDL change (% change from baseline): 118.6%
  Total cholesterol change (% change from baseline): 115.8 % change from baseline
  Triglyceride change (% change from baseline): 32.2 % change from baseline
Group 3, week 1, treatment
  HDL change (% change from baseline): 18.6%
  LDL change (% change from baseline): 60.5%
  Total cholesterol change (% change from baseline): 46.1 % change from baseline
  Triglyceride change (% change from baseline): −20.2 % change from baseline
Group 3, week 2, treatment
  HDL change (% change from baseline): 3.7%
  LDL change (% change from baseline): 58.3%
  Total cholesterol change (% change from baseline): 41.5 % change from baseline
  Triglyceride change (% change from baseline): −56.1 % change from baseline
Group 3, week 3, treatment
  HDL change (% change from baseline): 7.7%
  LDL change (% change from baseline): 35.1%
  Total cholesterol change (% change from baseline): 22.3 % change from baseline
  Triglyceride change (% change from baseline): −41.6 % change from baseline
Group 3, week 4, treatment
  HDL change (% change from baseline): −12.0%
  LDL change (% change from baseline): −28.7%
  Total cholesterol change (% change from baseline): −22.3 % change from baseline
  Triglyceride change (% change from baseline): −44.5 % change from baseline
Group 3, week 5, treatment
  HDL change (% change from baseline): 1.0%
  LDL change (% change from baseline): −27.5%
  Total cholesterol change (% change from baseline): −21.0 % change from baseline
  Triglyceride change (% change from baseline): −44.4 % change from baseline
Group 3, week 6, treatment
  HDL change (% change from baseline): 9.5%
  LDL change (% change from baseline): −33.2%
  Total cholesterol change (% change from baseline): −26.5 % change from baseline
  Triglyceride change (% change from baseline): −46.2 % change from baseline
Group 3, week 7, treatment
  HDL change (% change from baseline): 8.3%
  LDL change (% change from baseline): −39.4%
  Total cholesterol change (% change from baseline): −30.5 % change from baseline
  Triglyceride change (% change from baseline): −35.0 % change from baseline
Group 3, week 8, treatment
  HDL change (% change from baseline): −0.9%
  LDL change (% change from baseline): −27.9%
  Total cholesterol change (% change from baseline): −20.4 % change from baseline
  Triglyceride change (% change from baseline): −37.4 % change from baseline
Group 3, week 9, washout
  HDL change (% change from baseline): 1.5%
  LDL change (% change from baseline): −41.8%
